Biological target: HPCS, 3-hydroxypropionyl-CoA synthetase (HPCS/HPCD complex) (Metallosphaera sedula, UniProt A4YGR1)
Settings: ATP 3 mM, CoA 0.1 mM, MgCl2 20 mM, NADPH 0.5 mM, pH 6.5, 65°C

Sequence of HPCS, 3-hydroxypropionyl-CoA synthetase (HPCS/HPCD complex) (A4YGR1 whole entry): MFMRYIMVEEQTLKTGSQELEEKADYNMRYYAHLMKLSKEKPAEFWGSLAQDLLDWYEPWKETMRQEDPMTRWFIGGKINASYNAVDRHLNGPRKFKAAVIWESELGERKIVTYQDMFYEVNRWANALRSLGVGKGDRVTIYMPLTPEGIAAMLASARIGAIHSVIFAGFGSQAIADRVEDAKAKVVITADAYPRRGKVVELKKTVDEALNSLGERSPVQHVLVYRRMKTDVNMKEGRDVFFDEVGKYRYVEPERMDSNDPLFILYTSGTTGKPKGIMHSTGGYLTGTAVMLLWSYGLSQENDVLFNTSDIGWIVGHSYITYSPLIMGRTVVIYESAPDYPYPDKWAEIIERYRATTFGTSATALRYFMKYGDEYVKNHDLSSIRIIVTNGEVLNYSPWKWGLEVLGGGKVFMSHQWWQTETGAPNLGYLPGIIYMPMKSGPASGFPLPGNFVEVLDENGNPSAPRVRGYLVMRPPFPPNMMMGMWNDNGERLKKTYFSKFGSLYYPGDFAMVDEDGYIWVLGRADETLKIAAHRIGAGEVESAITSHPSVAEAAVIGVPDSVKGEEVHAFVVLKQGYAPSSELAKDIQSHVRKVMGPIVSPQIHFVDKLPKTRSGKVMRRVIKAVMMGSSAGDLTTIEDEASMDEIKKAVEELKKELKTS
Sequence of HPCS, 3-hydroxypropionyl-CoA synthetase (HPCS/HPCD complex) (A4YI89 whole entry partner): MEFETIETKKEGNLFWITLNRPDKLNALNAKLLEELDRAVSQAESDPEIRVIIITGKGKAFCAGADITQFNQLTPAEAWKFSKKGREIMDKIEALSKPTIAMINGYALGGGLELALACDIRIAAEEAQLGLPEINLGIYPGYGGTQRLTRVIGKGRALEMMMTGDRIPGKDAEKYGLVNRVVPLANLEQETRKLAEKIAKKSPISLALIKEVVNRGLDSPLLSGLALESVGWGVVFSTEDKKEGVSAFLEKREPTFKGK

O=C(O)CCO [3-Hydroxypropionate]
HPLC of propionyl-CoA formed with HPCS/HPCD and ACR: Formation of propionyl-CoA from 3HP by HPCS, HDCD, and ACR
